Measurements reported in patent US11911348B2, “Therapeutic agent for cancer” (THERAVALUES CORPORATION, priority 2014, dated 2024).

Test system: MC38 mouse colon cancer tumor
Assay: Tumor size of subcutaneously implanted MC38 mouse colon cancer in mice
Format: in vivo
Text: As the test animals, 6-week old […] mice (female, weighed around 20 g, CLEA Japan, Inc.) were purchased, and used after being acclimated to the environment for two to five days. • (2) Transplantation Method
In the right abdomen of the test animals, 5×10^5 mouse colon cancer cell lines (MC38) were subcutaneously implanted by using a 27 G needle. • (3) Administration method
Into the mice (n=[…] to 8) to which the colon cancer cell lines (MC 38) had been inoculated, every day from the 3rd day after the inoculation to the last day of the experiment, 200 μl of a curcumin solution prepared by suspending a commercially available curcumin 10%-containing pharmaceutical preparation (Theracurmin® CR-031P, manufactured by Theravalues Corporation) (Examples 1 to 4) in water or by suspending the synthetic curcumin-HPMC complex prepared as described below (Example 5) in water (prepared so that the curcumin content as 5 mg or 30 mg per 1 kg body weight) was forcibly administered orally to the mice using a feeding needle.
In addition, as so the control groups, a curcumin single administration group (Comparative Examples 1, 4, 6, and 10) in a case where Rat IgG2b (clone: LTF-2 manufactured by Bio X Cell) was intraperitoneally administered in place of the anti-PD-L1 antibody (clone: 10F·9G2 manufactured by Bio X Cell) or the anti-PD-1 antibody (clone: RMP1-14 manufactured by Bio X. Cell); an anti-PD-L1 antibody single administration group (Comparative Examples 2, 5 and 7) in a case where water was administered in place of the curcumin solution, and an anti-PD-L1 antibody was administered; an anti-PD-1 antibody single administration group (Comparative Examples 9 and 11) in a case where water was administered in place of the curcumin solution, and an anti-PD-1 antibody was administered; and a water administration group (Comparative Example 3) in a case where water was administered in place of the curcumin solution, and Rat IgG2b (clone: LTF-2 manufactured by Bio X Cell) was administered in place of the anti-PD-L1 antibody were prepared. • (4) Evaluation of Tumor Size
The tumor size of the test animals was measured by measuring the long diameter and the short diameter of the tumor with a vernier caliper every 2 to 4 days, and calculated by the following equation. Tumor size=the long diameter×the short diameter×the short diameter÷2 (Mathematical Formula 1) • (5) Preparation method of synthetic curcumin-HPMC complex

## COc1cc(/C=C/C(=O)/C=C(O)/C=C/c2ccc(O)c(OC)c2)ccc1O [curcumin]
FIG. 3, curcumin 5 mg/kg/mouse singly administered
  size of the MC38 mouse colon cancer tumor compared with the control: same size as that of the control
FIG. 3, curcumin 5 mg/kg/mouse, anti-PD-L1 antibody on 7th, 10th, 13th days
  antiproliferative effect of the colon cancer tumor: not recognized
FIG. 4, curcumin 30 mg/kg/mouse singly administered
  size of the MC38 mouse colon cancer tumor compared with the control: same size as that of the control
FIG. 4, curcumin 30 mg/kg/mouse, anti-PD-L1 antibody
  antiproliferative effect of the colon cancer tumor: not recognized
